From PMC10454728, “A Comparative Study on the Lysosomal Cation Channel TMEM175 Using Automated Whole-Cell Patch-Clamp, Lysosomal Patch-Clamp, and Solid Supported Membrane-Based Electrophysiology: Functional Characterization and High-Throughput Screening Assay Development” (International Journal of Molecular Sciences, 2023)
Several values for one entry are separate records, joined by “and”; a condition that tells them apart may be missing. Identical values can stand only once. Entries after “also recorded” stand apart in the source; their conditions may differ. Like-named read-outs stand apart in the source and are kept apart here.

Tests used:
[1] = target: T1, TMEM175 (Homo sapiens, UniProt Q9BSA9); test: SSME K+ flux compound assay on purified lysosomes overexpressing TMEM175 (SURFE2R 96SE); assay type: biochemical
T1 sequence (Q9BSA9 1-504): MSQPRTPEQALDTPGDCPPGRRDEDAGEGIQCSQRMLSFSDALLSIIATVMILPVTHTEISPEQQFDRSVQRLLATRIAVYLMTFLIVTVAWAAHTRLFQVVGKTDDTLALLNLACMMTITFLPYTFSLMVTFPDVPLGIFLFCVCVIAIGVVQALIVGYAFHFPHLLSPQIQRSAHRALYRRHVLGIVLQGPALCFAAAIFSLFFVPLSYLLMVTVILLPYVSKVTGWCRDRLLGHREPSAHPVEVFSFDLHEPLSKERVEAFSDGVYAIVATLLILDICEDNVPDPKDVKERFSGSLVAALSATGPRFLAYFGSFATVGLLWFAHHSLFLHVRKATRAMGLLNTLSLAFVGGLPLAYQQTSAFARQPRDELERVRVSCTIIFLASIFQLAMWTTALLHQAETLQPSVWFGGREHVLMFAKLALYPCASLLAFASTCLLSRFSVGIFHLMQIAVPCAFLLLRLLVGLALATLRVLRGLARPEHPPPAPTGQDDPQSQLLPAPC
Method: In brief, compound measurements using SSME are performed in a three-step process (Figure 6B). First, TMEM175-mediated K^+ translocation is measured through 50 mM K^+ concentration jumps. This represents the baseline current of TMEM175 activity (I0). […] Third, the activation through a 50 mM K^+ concentration jump is repeated, this time in the presence of the compound to record the modulated TMEM175 current (I). In this process, each individual sensor of the 96-well sensor plate is only exposed to a single concentration of the compound. The relative current amplitude I/I0 is used as a measure of the compound effect and averaged across sensors.
We applied 50 mM K^+ concentration jumps in the absence and presence of different compound concentrations to derive information about compound effects on K^+ flux through TMEM175; (B) Time dependence of recorded peak current amplitudes for the complete workflow, which involves multiple sequential measurements. […] The recording of each sensor well starts with the application of a control measurement, rinsing non-activating solution across the sensor (baseline recording). Afterwards, we performed three solution exchange measurements from 50 mM NaCl to 50 mM KCl to measure K^+ flux through TMEM175 (baseline TMEM175 current, I0). We then rinsed the sensor with non-activating solution containing the compound at a given concentration, followed by incubation of 15 min to equilibrate the sensors with the compound. Subsequently, the solution exchange from 50 mM NaCl to 50 mM KCl is repeated twice, but in the presence of the given compound concentration to determine the modulated peak current I. Afterwards, we repeated the measurement in the absence of the compound three times (wash-out) to recover the non-modulated TMEM175 current. We subtracted the average artifact current recorded with control lysosomes from I and I0 (Figure 1K), without considering off-target effects of the tested compound. […] Success rates were determined based on the QC criteria provided in the Methods section. […] We determined average values, AVGpos and AVGneg, and standard deviations, SDpos and SDneg, of the recorded peak currents. […] Error bars represent the SEM obtained from automated data analysis using DataControl96, based on variations of the currents obtained with the TMEM175 sample. Each compound concentration was recorded with at least N = 8 sensors. […] Imin was always fixed to 0 for inhibitors or 1 for enhancers, as indicated. […] A total of 50 µL of 0.1 mM octadecanethiol in isopropanol was added to each sensor well, following incubation for 30 min at room temperature to form an alkanethiol monolayer on the sensor surface. Subsequently, the sensors were washed twice with isopropanol and three times with ddH2O, before dry-tapping on a tissue. The subsequent process of sensor coating with lipid and lysosomes was carried out manually for the SURFE^2R N1 and automated with the SURFE^2R 96SE serving as a pipetting robot. In both cases, 1.5 µL of 7.5 mg/mL 1,2-diphytanoyl-sn-glycero-3-phosphocholine (DPhPC) in n-decane was added to the center of the circular gold surface, followed by the addition of 50 µL of non-activating solution to form the SSM. The composition of the non-activating solution was adjusted for each experiment (Table 2). […] SSM-coated 96-well sensor plates were stored at −80 °C before use.

[2] = target: T1, TMEM175; test: Whole-cell automated patch-clamp (APC) Cs+ flux assay, SyncroPatch 384i, HEK293 overexpressing TMEM175; assay type: cell-based
Method: To validate the APC assay, we compared currents between TMEM175-overexpressing cells and control HEK293 UT cells. […] In our compound application protocol, which was used to evaluate compound potencies, we consistently administered tool compounds to assess their impact on TMEM175 activity (Figure 7C).
The voltage protocol generation and data collection were performed with PatchControl384 v1.9.0 and analyzed with DataControl384 v2.2.0. A multi-hole, medium resistance chip with four patch-clamp holes per well was used for recording.
DMSO remained constant at 0.2% and BSA at 0.05% in the external solution throughout the assay, if not stated otherwise.
The voltage protocol applied for the investigation of the tool compounds (Figure 7) consisted of a 500 ms ramp from −80 mV to +80 mV, followed by a 400 ms step from −80 mV to +80 mV before returning to the holding potential of 0 mV (Figure 7B). The maximum outward current amplitude obtained at +80 mV from the ramp section was used for analysis. To investigate the blinded test compounds (Figure 8), an alternative voltage protocol was applied. […] The maximum outward current amplitude obtained at 0 mV from the voltage step section was used for analysis. In both voltage protocols, voltage sweeps were repeated every 10 s and currents sampled at 10 kHz.
The application protocol for agonists consisted of two additions of extracellular physiological solution for a minimum of 3 min, followed by the external application of the test compound for a minimum of 2 min (Figure 7C).
Currents recorded after compound addition were normalized to the baseline current before compound addition, averaged, and plotted over the compound concentration to determine the EC50 and IC50 values.

[3] = test system: TMEM175; conditions: cited from earlier work; for IC50: read-out: IC50, literature
[4] = test system: control lysosomes purified from HEK293 cells expressing endogenous TMEM175; test: SSME off-target compound effects on control lysosomes (SURFE2R N1)
Method: A solution exchange of 50 mM Na^+ against 50 mM K^+ was used to stimulate TMEM175. […] Average peak currents and SEM, recorded from N = 5 sensors, are shown. […] Each sensor was used for four measurements in the following sequence: in the absence of compound, in the presence of 100 nM compound, in the presence of 10 µM compound, and in the absence of compound (wash-out). Datasets were normalized to the peak current recorded in the absence of compound before averaging. […] The three different experimental conditions shown in one graph were applied on the same sensor. Average peak currents and SD from N = 4 sensors are shown, and no normalization was applied.

[5] = target: T1, TMEM175; test: SSME K+ flux compound assay on purified lysosomes overexpressing TMEM175 (SURFE2R 96SE); assay type: biochemical; remark: listed apart in the source
[6] = Table 4 fit, currents normalized to current before compound
[7] = from dose-response fit, Figure 8

[Cl-].[Cl-].[Zn+2] [Zn, ZnCl2]
Effect of 10 mM compound on TMEM175 K+ current, SSME ([1]; 50 mM K+ jump): full block
IC50 in SSME relative to literature value (higher) ([1]; 4-AP vs largest literature value for K+ flux, zinc vs literature value): 50 fold
IC50 ([1]; K+ flux, 50 mM K+ jump, pH 7.6, 0 mV, external (cytosolic side) application, artifact-corrected, read-out: Half saturation (IC50), SSME): 1530 µM
Relative current, SSME ([1]; at 10 mM (highest concentration), relative to TMEM175 baseline current (100%)): 19.2 ± 4.6% (10 mM)
Signal enhancement, APC ([2]; 0.5 mM ZnCl2, over 125 plates): 301 ± 94%
Effect of raising zinc up to 10 mM, APC ([2]; 0.5 mM to 10 mM, listed as zinc): could not find any changes; also recorded: without further impacting the recorded currents
Relative current, APC ([2]; enhancers, (50 µM), relative to baseline current (100%)): 400 ± 40% (50 µM)
EC50 ([2]; tool compounds, Cs+ flux, outward current at +80 mV, 0.05% BSA, read-out: Half saturation (EC50), APC): 102 µM
IC50 ([3]; whole-organelle patch-clamp, ref [1]): 38 ± 13 µM
Off-target effect on control lysosomes ([4]; zinc, two highest concentrations): off-target inhibition

Nc1ccncc1 [4-AP, 4-aminopyridine]
TMEM175 sample current in the presence of compound, SSME ([1]; 10 mM 4-AP, 50 mM K+ jump, not artifact-corrected): −1.22 ± 0.1 nA
Effect of 10 mM compound on TMEM175 K+ current, SSME ([1]; 50 mM K+ jump): full block
Signal block, APC ([2]; 1 mM 4-AP, over 125 plates): 73 ± 14%
Off-target signal potentiation on control lysosomes ([4]; 10 mM 4-AP): +380 pA
Artifact current of control lysosomes in presence of compound ([4]; 10 mM 4-AP, 50 mM K+ jump): −0.69 ± 0.37 nA
Off-target effect compared to effect on TMEM175 lysosomes ([4]; 10 mM 4-AP, opposite direction): ~ 8%
Effect on current of control lysosomes, H+ influx (pH jump) ([4]; 10 mM 4-AP, ΔpH 3.0): did not affect

CCOC(=O)C1=C(N)Oc2ccc(Cl)cc2C1C(C#N)C(=O)OCC (centres unmarked) [SC-79]
n (Hill coefficient), SSME ([1]; Table 4 fit): 0.89 ± 0.6
Imax − Imin (nA), SSME [1, 6]: 0.09 ± 0.04 ^1 nA
Potentiation, SSME [1, 7]: 9 ± 4%
n (Hill coefficient), APC ([2]; Table 4 fit): 1.17 ± 0.38
Imax − Imin (nA), APC [2, 6]: 2.45 ± 1.02 nA
Current potentiation, APC [2, 7]: 245 ± 102% and 345 ± 102%
EC50 ([2]; test-compound voltage protocol, outward current at 0 mV, not corrected for off-target effects, read-out: EC50 (µM), APC): 62 µM and 61.8 µM
EC50 ([5]; 50 mM K+ jump, not corrected for artifacts or off-target effects): 2.9 ± 2.3 µM
Increase in TMEM175-mediated K+ flux, literature ([3]; 10 µM, +80 mV, ref [48]): two-fold
Effect on TMEM175 in whole-cell patch-clamp, literature ([3]; ref [6]): did not find any effect
Control current in presence of compound ([4]; 30 µM SC-79): −0.64 ± 0.27 nA

CCCCC1(C2CCCC2)Cc2cc(OCCCC(=O)O)c(Cl)c(Cl)c2C1=O (centres unmarked) [DCPIB]
EC50 ([1]; tool enhancers, K+ flux, 50 mM K+ jump, pH 7.6, 0 mV, artifact-corrected, read-out: Half saturation (EC50), SSME): 9.6 µM
EC50 [2]: 16.7 µM
Effect of K+ concentration (driving force) on apparent EC50 ([5]; 2, 5, 10, 50 mM K+, 3, 10, 30 µM DCPIB): not affected
Increase in K+ flux through TMEM175, literature ([3]; 50 µM, +80 mV, ref [6]): eight-fold
Control current in presence of compound ([4]; 20 µM DCPIB): +0.69 ± 0.41 nA
Off-target effect compared to effect on TMEM175 lysosomes ([4]; 20 µM DCPIB): ~ 35%
